Active and inactive are the calls of the source. No cut-off for these calls is given here.
What was measured:
[1] = target: T1, Methionine aminopeptidase (Escherichia coli K-12, UniProt P0AE18); assay: Inhibition of C-terminal poly-His-tagged Escherichia coli MetAP expressed in Escherichia coli BL21(DE3) incubated for 30 mins before MGMM substrate addition by fluorescence assay
T1 sequence (P0AE18 whole entry): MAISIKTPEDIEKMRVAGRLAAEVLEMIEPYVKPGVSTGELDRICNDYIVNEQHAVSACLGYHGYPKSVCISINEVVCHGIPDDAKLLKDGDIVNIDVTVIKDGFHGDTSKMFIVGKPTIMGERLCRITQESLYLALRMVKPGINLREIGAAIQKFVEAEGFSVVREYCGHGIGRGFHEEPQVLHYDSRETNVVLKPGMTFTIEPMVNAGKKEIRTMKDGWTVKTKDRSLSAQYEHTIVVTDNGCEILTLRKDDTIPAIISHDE

[2] = test system: BT-474; assay: Cytotoxicity against human BT474 cells at 1.6 to 100 ug/ml after 72 hrs by crystal violet assay; type: functional, cell-based
[3] = test system: Calu-6; assay: Cytotoxicity against human Calu6 cells at 1.6 to 100 ug/ml after 72 hrs by crystal violet assay; type: functional, cell-based
[4] = test system: CAPAN-1; assay: Cytotoxicity against human Capan1 cells at 1.6 to 100 ug/ml after 72 hrs by crystal violet assay; type: functional, cell-based
[5] = Half life assessed as decomposition into amines and unsaturated ketones at 250 uM in 50 mM Tris/maleate pH 7.5 buffer by HPLC method; type: physicochemical; conditions: for half-life at 250 µM: Tris/maleate buffer, pH 7.5; for t1/2: buffer, pH 7.5, 250 µM
[6] = target: Methionine aminopeptidase (Staphylococcus aureus (strain COL), UniProt Q5HEN6); assay: Inhibition of N-terminal poly-His-tagged Staphylococcus aureus COL MetAP expressed in Escherichia coli BL21(DE3) incubated for 30 mins before MGMM substrate addition by fluorescence assay; parameters: species or system Staphylococcus aureus subsp. aureus COL
[7] = test system: Ca-Ski; assay: Cytotoxicity against human CaSki cells at 1.6 to 100 ug/ml after 72 hrs by crystal violet assay; type: functional, cell-based
[8] = test system: HaCaT; assay: Cytotoxicity against human HaCaT cells at 1.6 to 100 ug/ml after 72 hrs by crystal violet assay; type: cell-based
[9] = test system: A 172; assay: Cytotoxicity against human A172 cells at 1.6 to 100 ug/ml after 72 hrs by crystal violet assay; type: functional, cell-based
[10] = test system: A-431; assay: Cytotoxicity against human A431 cells at 1.6 to 100 ug/ml after 72 hrs by crystal violet assay; type: functional, cell-based
[11] = target: Methionine aminopeptidase 2 (Homo sapiens, UniProt P50579); conditions: sf9
Methionine aminopeptidase 2, sequence (P50579 whole entry): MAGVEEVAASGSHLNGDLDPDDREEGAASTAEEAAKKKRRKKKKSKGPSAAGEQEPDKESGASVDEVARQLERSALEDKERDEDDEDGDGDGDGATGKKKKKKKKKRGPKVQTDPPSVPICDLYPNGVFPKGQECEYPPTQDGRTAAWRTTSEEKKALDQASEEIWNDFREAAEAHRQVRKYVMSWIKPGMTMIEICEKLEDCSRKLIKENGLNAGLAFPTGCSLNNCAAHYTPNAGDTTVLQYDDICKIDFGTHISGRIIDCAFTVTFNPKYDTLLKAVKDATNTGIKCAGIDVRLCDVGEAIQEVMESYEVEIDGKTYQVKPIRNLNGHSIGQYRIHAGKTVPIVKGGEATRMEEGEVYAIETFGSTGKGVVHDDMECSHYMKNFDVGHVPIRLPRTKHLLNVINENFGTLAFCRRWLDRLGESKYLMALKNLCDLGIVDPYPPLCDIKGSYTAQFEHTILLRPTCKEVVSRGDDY
Description: Inhibition of human MetAP-2 expressed in Sf9 cells incubated for 60 mins before MGMM substrate addition by fluorescence assay

[12] = Cytotoxicity against human Flow 2002 cells at 1.6 to 100 ug/ml after 72 hrs by crystal violet assay; type: cell-based; conditions: flow 2002, 72 h
[13] = test system: MeWo; assay: Cytotoxicity against human MeWo cells at 1.6 to 100 ug/ml after 72 hrs by crystal violet assay; type: functional, cell-based
[14] = test system: SW707; assay: Cytotoxicity against human SW707 cells at 1.6 to 100 ug/ml after 72 hrs by crystal violet assay; type: functional, cell-based
[15] = test system: Escherichia coli; assay: Antimicrobial activity against Escherichia coli BL21(DE3) assessed as inhibition of bacterial growth at 200 uM incubated at 37 degC for 7 hrs; type: functional; conditions: for inhibition at 200 µM: BL21-DE3, 7 h
[16] = target: Methionine aminopeptidase 1 (Homo sapiens, UniProt P53582); assay: Inhibition of N-terminal poly-His-tagged human MetAP-1 expressed in Escherichia coli BL21(DE3) incubated for 30 mins before MGMM substrate addition by fluorescence assay

SMILES	IC50 ([1]; read-out: IC50)	half-life at 250 µM [5]	IC50 [6]	IC50 [11]	IC50 [16]	IC50 [1]	t1/2 [5]	IC50 ([6]; read-out: IC50)	Activity [2]	Activity [3]	Activity [4]	Activity [7]	Activity [8]	Activity [9]	Activity [10]	Activity [12]	Activity [13]	Activity [14]	inhibition at 200 µM [15]	inhibition [15]
Cl.O=C(CCN1CCCCC1)c1ccccc1	–	–	Not Active	Not Active	Not Active	Not Active	Stable	–	Active	Active	Active	Active	Toxic	Active	Active	Toxic	Active	Active	–	inactive
COc1cccc(C(=O)CCN(C)C)c1.Cl	–	–	Not Active	Not Active	Not Active	Not Active	Stable	–	Active	Active	Active	Active	Toxic	Active	Active	Toxic	Active	Active	–	inactive
CN(C)CC1CCc2sccc2C1=O.Cl (stereo unspecified)	60.8 µM	116 h	Not Active	Not Active	Not Active	–	–	–	Active	Active	Active	Active	Toxic	Active	Active	Toxic	Active	Active	10%	–
CN(C)CC1CCc2ccccc2C1=O.Cl (stereo unspecified)	8.4 µM	5.78 h	Not Active	Not Active	Not Active	–	–	–	Active	Active	Active	Active	Toxic	Active	Active	Toxic	Active	Active	68%	–
C=C1Cc2cc(OC)c(OC)cc2C1=O	0.7 µM	–	–	Not Active	Not Active	–	–	18.9 µM	Active	Active	Active	Active	Toxic	Active	Active	Toxic	Active	Active	25%	–

More lines, main results first:

IC50 ([1]; read-out: IC50)	half-life at 250 µM [5]	IC50 [6]	IC50 [11]	IC50 [16]	IC50 [1]	t1/2 [5]	IC50 ([6]; read-out: IC50)	SMILES	Activity [2]	Activity [3]	Activity [4]	Activity [7]	Activity [8]	Activity [9]	Activity [10]	Activity [12]	Activity [13]	Activity [14]	inhibition at 200 µM [15]	inhibition [15]
9.1 µM	14.4 h	Not Active	Not Active	Not Active	–	–	–	Cl.O=C1c2ccccc2CCC1CN1CCCCC1 (stereo unspecified)	Active	Active	Active	Active	Toxic	Active	Active	Toxic	Active	Active	28%	–
3.8 µM	4.82 h	Not Active	Not Active	Not Active	–	–	–	CC1CC(CN(C)C)C(=O)c2ccccc21.Cl (stereo unspecified)	Active	Active	Active	Active	Toxic	Active	Active	Toxic	Active	Active	75%	–
45.5 µM	14.4 h	Not Active	Not Active	Not Active	–	–	–	Cc1cc(C)c2c(c1)C(=O)C(CN(C)C)CC2.Cl (stereo unspecified)	Active	Active	Active	Active	Toxic	Active	Active	Toxic	Active	Active	56%	–
–	–	Not Active	Not Active	Not Active	Not Active	–	–	COc1ccc(C(=O)CCN(C)C)cc1.Cl	Active	Active	Active	Active	Toxic	Active	Active	Toxic	Active	Active	–	inactive
3.7 µM	10.5 h	Not Active	Not Active	Not Active	–	–	–	COc1ccc2c(c1)C(=O)C(CN1CCCCC1)CC2.Cl (stereo unspecified)	Active	Active	Active	Active	Toxic	Active	Active	Toxic	Active	Active	30%	–
–	–	Not Active	Not Active	Not Active	Not Active	Stable	–	CCC(CN(C)C)C(=O)c1ccccc1.Cl (stereo unspecified)	Active	Active	Active	Active	Toxic	Active	Active	Toxic	Active	Active	–	inactive
–	–	Not Active	Not Active	Not Active	Not Active	Stable	–	COc1cccc(C(=O)CCN2CCCCC2)c1.Cl	Active	Active	Active	Active	Toxic	Active	Active	Toxic	Active	Active	–	inactive
1.7 µM	0.933 h	–	Not Active	Not Active	–	–	18.9 µM	COc1cc2c(cc1OC)C(=O)C(CN(C)C)C2.Cl (stereo unspecified)	Active	Active	Active	Active	Toxic	Active	Active	Toxic	Active	Active	17%	–

From ChEMBL document CHEMBL3351493, “Beta-aminoketones as prodrugs for selective irreversible inhibitors of type-1 methionine aminopeptidases” (Bioorg Med Chem Lett, 2014)
